Experiments:
[1] = metformin 750 mg single dose alone, fed, n=24
Protocol: (§5) Subjects were admitted to hospital on Day 1 and were discharged on Day 12. […] On Day 3 and Days 5–11, subjects received peficitinib 150 mg (150 mg × 1 tablet), once daily. Subjects returned for an end-of-study examination on Day 15 ± 2.
(§6) The planned sample size was 24 subjects, based on the precedent set by other PK studies of a similar nature [21, 22]. The safety analysis set (SAF) consisted of all subjects who received at least one dose of study drug. The PK analysis set (PKAS) consisted of subjects who received the study drug and provided at least one estimable PK parameter. Plasma PK parameters were calculated by non-compartmental analysis using Phoenix(R) WinNonlin(R) software, version 6.2 (Certara USA, Inc., Princeton, NJ, USA). Baseline demographic and other characteristics, vital signs, clinical laboratory findings, 12-lead ECG results and TEAEs were summarised for the SAF using descriptive statistics.
(§7) Statistical analyses were performed using SAS(R) software, version 9.4 (SAS Institute Inc., Cary, NC, USA). […] The least-square (LS) geometric mean ratio (GMR) and its 90% confidence interval (CI) were calculated using the exponential-transformed LS geometric mean difference and CI. Missing data were not imputed or used for analyses.

clinical = details: male, human, plasma, po, 750 mg, metformin 750 mg single dose alone, fed, n=24; for AUC(0-inf): Plasma AUCinf of metformin; for Cmax: Plasma Cmax of metformin
Protocol: as §5, §6, §7

MATE1 = target: T1, MATE1 (Homo sapiens, UniProt Q96FL8); test: Inhibition of [14C]metformin uptake into MATE1-expressing HEK293 cells; format: cell-based
T1 construct: containing full-length human transporter cDNA; host or cells: HEK293
T1 sequence (Q96FL8 1-570): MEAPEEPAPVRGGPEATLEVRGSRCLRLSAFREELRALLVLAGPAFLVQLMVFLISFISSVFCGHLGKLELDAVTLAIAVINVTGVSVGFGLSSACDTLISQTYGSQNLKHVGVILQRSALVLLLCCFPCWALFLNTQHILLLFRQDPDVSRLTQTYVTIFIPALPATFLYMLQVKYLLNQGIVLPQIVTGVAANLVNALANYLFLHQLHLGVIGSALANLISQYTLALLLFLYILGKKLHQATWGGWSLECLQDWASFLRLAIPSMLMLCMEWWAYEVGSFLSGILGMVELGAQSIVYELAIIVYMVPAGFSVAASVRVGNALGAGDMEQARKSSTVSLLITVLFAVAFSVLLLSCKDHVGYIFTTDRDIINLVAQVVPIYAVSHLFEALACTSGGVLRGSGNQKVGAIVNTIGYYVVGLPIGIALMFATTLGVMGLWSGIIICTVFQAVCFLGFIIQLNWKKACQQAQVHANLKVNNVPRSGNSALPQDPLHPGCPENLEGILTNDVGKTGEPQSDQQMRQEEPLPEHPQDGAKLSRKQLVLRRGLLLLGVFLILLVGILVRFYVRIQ
Excerpt: (§1) Human embryonic kidney (HEK293) cells expressing OCT1, OCT2, MATE1 and MATE2-K were established at the ADME & Tox. Research Institute (Sekisui Medical Co., Ltd, Ibaraki, Japan) by transfection of a pcDNA vector (Invitrogen, Carlsbad, CA, USA) containing full-length human transporter cDNA. Control HEK293 cells were established by transfection of the empty vector. The expression level of transporter mRNA in transfected cells was verified periodically by real-time polymerase chain reaction. […] The cells were maintained at 37 °C with 5% CO2 in DMEM containing 10% FBS with antibiotic-antimycotics and L-glutamine.
(§2) Assays were performed in triplicate. […]
(§3) After incubation, the test solution was removed, and the cells were washed once with ice-cold 0.2% bovine serum albumin in phosphate-buffered saline (PBS) and twice with 1 mL of ice-cold PBS. […] After the cell lysate was mixed by pipetting, 0.3 mL (OCT1, OCT2, and MATE1) or 0.5 mL (MATE2-K) of the lysate was collected into a glass vial and mixed with 10 mL of the scintillator Hionic-fluor (PerkinElmer, Inc., Waltham, MA, USA) to measure the radioactivity using a liquid scintillation counter (2500TR [PerkinElmer, Inc.]).
(§4) Protein content was measured using the BCA Protein Assay Kit (Thermo Fisher Scientific, Inc., Waltham, MA, USA, or Pierce, Rockford, IL, USA) in accordance with the manufacture’s recommendations. […]

[2] = parameters: method as in earlier work; details: cited from earlier work
[3] = cited from earlier work
MATE2-K = target: T2, MATE2-K (Homo sapiens, UniProt Q86VL8); test: Inhibition of [14C]metformin uptake into MATE2-K-expressing HEK293 cells; format: cell-based
T2 construct: containing full-length human transporter cDNA; expressed in transfected cells; host or cells: HEK293 (transient transfection)
Excerpt: as §1, §2, §3, §4

OCT1 = target: T3, OCT1 (Homo sapiens, UniProt O15245); test: Inhibition of [14C]metformin uptake into OCT1-expressing HEK293 cells; format: cell-based
T3 construct: containing full-length human transporter cDNA; host or cells: HEK293
T3 sequence (O15245 1-554): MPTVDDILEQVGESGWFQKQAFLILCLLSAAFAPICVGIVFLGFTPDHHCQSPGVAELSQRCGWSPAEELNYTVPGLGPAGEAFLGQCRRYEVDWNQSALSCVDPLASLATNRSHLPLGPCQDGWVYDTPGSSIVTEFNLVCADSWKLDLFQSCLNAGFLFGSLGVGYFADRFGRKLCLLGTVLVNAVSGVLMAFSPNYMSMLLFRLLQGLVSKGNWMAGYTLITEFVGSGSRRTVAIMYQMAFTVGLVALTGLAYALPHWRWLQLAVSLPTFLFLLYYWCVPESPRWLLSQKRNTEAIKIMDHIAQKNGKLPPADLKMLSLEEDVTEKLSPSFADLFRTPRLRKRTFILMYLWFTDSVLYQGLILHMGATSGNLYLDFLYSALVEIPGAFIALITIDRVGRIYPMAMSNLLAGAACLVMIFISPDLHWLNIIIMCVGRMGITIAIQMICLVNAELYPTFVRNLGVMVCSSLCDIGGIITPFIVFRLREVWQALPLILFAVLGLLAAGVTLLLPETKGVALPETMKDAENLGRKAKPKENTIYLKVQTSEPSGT
Excerpt: as §1, §2, §3, §4

[4] = Clinical drug-drug interaction study: safety (treatment-emergent adverse events); format: in vivo, healthy male subjects
Protocol: Safety assessments were undertaken from screening through to the final study assessment. Safety was assessed by the monitoring of adverse events, vital signs (supine blood pressure, supine pulse and axillary temperature), clinical laboratory tests (haematology, biochemistry and urinalysis) and 12-lead electrocardiograms (ECGs).
TEAEs were graded using the National Cancer Institute’s Common Terminology Criteria for Adverse Events (NCI CTCAE) guidelines (version 4.0).

OCT2 = target: T4, OCT2 (Homo sapiens, UniProt O15244); test: Inhibition of [14C]metformin uptake into OCT2-expressing HEK293 cells; format: cell-based
T4 construct: containing full-length human transporter cDNA; host or cells: HEK293
T4 sequence (O15244 1-555): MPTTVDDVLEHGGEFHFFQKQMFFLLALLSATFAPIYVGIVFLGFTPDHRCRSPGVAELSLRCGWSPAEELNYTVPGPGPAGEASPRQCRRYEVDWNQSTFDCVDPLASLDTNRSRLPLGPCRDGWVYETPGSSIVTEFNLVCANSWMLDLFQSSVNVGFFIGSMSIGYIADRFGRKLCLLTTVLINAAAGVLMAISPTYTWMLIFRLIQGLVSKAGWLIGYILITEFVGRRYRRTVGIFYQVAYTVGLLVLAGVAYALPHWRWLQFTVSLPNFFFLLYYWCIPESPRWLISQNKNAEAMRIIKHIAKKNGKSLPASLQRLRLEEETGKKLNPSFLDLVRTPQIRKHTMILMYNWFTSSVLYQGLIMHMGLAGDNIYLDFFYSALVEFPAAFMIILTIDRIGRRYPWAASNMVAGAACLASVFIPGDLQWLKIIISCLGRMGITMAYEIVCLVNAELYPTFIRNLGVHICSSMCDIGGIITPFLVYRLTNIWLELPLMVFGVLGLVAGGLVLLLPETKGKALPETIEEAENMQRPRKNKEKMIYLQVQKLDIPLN
Excerpt: as §1, §2, §3, §4

[5] = Earlier clinical pharmacokinetic and mass balance studies of peficitinib; format: in vivo, healthy subjects; details: single oral dose of 150 mg, fasted; calculated from 524.5 ng/mL assuming 72.83% protein bound
[6] = single oral dose of [14C]peficitinib, six healthy male subjects

T2 sequence (Q86VL8 1-566 isoform Q86VL8-3): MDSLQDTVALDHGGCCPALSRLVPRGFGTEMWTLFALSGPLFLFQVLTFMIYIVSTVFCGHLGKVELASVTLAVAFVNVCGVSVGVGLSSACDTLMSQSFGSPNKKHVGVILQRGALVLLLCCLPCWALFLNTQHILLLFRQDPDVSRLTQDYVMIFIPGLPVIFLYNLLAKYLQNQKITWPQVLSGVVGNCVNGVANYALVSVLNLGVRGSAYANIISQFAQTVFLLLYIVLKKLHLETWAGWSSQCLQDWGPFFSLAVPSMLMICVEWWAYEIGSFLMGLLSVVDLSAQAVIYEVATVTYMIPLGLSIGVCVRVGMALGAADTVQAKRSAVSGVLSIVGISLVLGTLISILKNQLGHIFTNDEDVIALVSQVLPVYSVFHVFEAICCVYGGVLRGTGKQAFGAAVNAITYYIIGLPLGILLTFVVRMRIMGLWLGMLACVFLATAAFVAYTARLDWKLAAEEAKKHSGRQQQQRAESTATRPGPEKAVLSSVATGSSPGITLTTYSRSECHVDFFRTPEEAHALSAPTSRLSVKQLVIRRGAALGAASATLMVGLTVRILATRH

With `CN(C)C(=N)N=C(N)N` [Metformin] the “CL/F of metformin, mean (SD)” value [1] was 83.6 (12.5) L/h, the “CL/F of metformin, median” value [1] was 82.9 L/h and the “CL/F of metformin, min-max” value [1] was 60.2 to 110 L/h. The “Plasma AUClast of metformin, mean (SD)” value [1] was 9050 (1410) ng∙h/mL, the “Plasma AUClast of metformin, median” value [1] was 8990 ng·h/mL and the “Urine Aelast% of metformin, mean (SD)” value [1] was 38.6 (3.77) %. The “Urine Aelast% of metformin, median” value [1] was 37.7%, the “Urine Aelast% of metformin, min-max” value [1] was 33.0–49.8% and the “tmax of metformin, median” value [1] was 3.00 h. For the same molecule, the AUC(0-inf) (clinical; median) was 9050 ng·h/mL, the AUC(0-inf) (clinical; min-max) was 6820 to 12500 ng·h/mL and the Cmax (clinical; mean (SD)) was 1380 ng/mL. It also gave a Cmax (clinical; median) of 1380 ng/mL and a Cmax (clinical; min-max) of 973 to 2030 ng/mL.

For `NC(=O)c1cnc2[nH]ccc2c1N[C@@H]1[C@@H]2CC3C[C@H]1C[C@@](O)(C3)C2` [Peficitinib], the IC50 (MATE1) is given as 10 µM, the Protein bound [2] is given as 72.83% and the “Urinary excretion, share of an oral dose” value ([3]; single and multiple doses, healthy subjects, two Phase I trials) is given as 9–15%. The Cmax of peficitinib ([3]; single oral dose of 150 mg, fasted conditions) was 524.5 ng/mL, the “Share of the peficitinib dose absorbed” value ([3]; single oral dose of [14C]peficitinib, six healthy male subjects, assuming stability in the gastrointestinal tract) was “approximately 64%” and the “Mean faecal excretion as unchanged peficitinib, share of administered dose” value [3, 6] was 29.8%. For the same molecule, the “Mean recovery in faeces” value [3, 6] was 56.6%, the “Mean recovery in urine” value [3, 6] was 36.8% and the IC50 (MATE2-K) was 20.8 µM. For the same molecule, the IC50 (OCT1) was 0.247 µM, the Tolerability ([4]; peficitinib 150 mg, metformin 750 mg, no serious TEAEs or TEAEs leading to treatment withdrawal) was “generally well tolerated” and the “Subjects with TEAEs” value ([4]; peficitinib alone phase, 150 mg once daily, 3/24 subjects, four mild (Grade 1) TEAEs, all considered drug related) was 12.5%. For the same molecule, the “Increased aspartate aminotransferase, subjects” value ([4]; peficitinib alone phase, 1/24) was 4.2%, the “Soft faeces, subjects” value ([4]; peficitinib alone phase, 1/24) was 4.2% and the “Increased alanine aminotransferase, subjects” value ([4]; peficitinib alone phase, 2/24) was 8.3%. For the same molecule, the IC50 (OCT2) was 71.4 µM and the “Cmax of unbound peficitinib” value [5] was 440 nM.

In the case of `CN/C(=N/CCSCc1nc[nH]c1C)NC#N` [cimetidine, reference compound], the “[14C]metformin uptake into MATE1-expressing cells, % of uptake in the absence of inhibitors” value (MATE1; typical inhibitor, cimetidine 10 μmol/L) is reported as 11.9–14.7% and the “[14C]metformin uptake into MATE2-K-expressing cells, % of uptake in the absence of inhibitors” value (MATE2-K; typical inhibitor, cimetidine 100 μmol/L) is reported as 8.2–15.1%.
